Values of other authors as cited in US7785629B2, “Bicalutamide-adsorbates, process for preparing same, and pharmaceutical compositions thereof” (Helm AG, priority 2005, dated 2010).

Conditions: water and aqueous buffers at various pH values

- Solubility: sparingly soluble
SMILES: CC(O)(CS(=O)(=O)c1ccc(F)cc1)C(=O)Nc1ccc(C#N)c(C(F)(F)F)c1 (stereo not shown) [Bicalutamide, N-[4′-cyano-3′-trifluoromethyl-phenyl]-3-[4″-fluorophenylsulfonyl]-2-hydroxy-2-methyl-propionamide]
